Earlier results in patent publication US20180116967A1, “EXTENDED RELEASE TABLET OF CYCLOBENZAPRINE” (SYNMOSA BIOPHARMA CORPORATION, priority 2015, published 2018).

Tested on: plasma protein

drug coupled to plasma protein: About 93%
Structure (SMILES): CN(C)CCC=C1c2ccccc2C=Cc2ccccc21 [cyclobenzaprine, 3-(5H-dibenzo[a,d]cyclohepten-5-ylidene)-N,N-dimethyl-1-propanamine]
